This is an account of results in US20050221317A1, “Use of an epitope of vascular endothelial growth factor receptor kdr/flk-1” (AstraZeneca AB, priority 2002, published 2005).

The test has as its target T1, KDR/Flk-1 receptor epitope Y1214 (Homo sapiens, UniProt P35968).
T1 construct: host or cells: HUVEC (human umbilical vein endothelial cells)
The test can be described thus: Phosphorylation of the Y1214 epitope of KDR/Flk-1 in VEGF-treated HUVECs (Western blot with anti-Y1214 antibody). In kind it is cell-based. As to conditions: VEGF-treated HUVEC cell lysate, 0.007-5.0 uM compound, FIG. 1. As for the experimental part: HUVECs were obtained from TCS Cellworks, Buckingham, UK (Catalogue number ZHS 8965) and cultured in Large Vessel Endothelial Cell Basal Medium+recommended 5 supplements obtained from TCS Cellworks (catalogue numbers ZHM 2951 and ZHS 8965). Cells were used when close to confluence in 3×75 cm^2 tissue culture flasks. Prior to treatment with inhibitor cells were cultured overnight in Basal Medium without supplements.
HUVECS were treated with inhibitors as follows. […] After 82 minutes 50 ng/ml VEGF was added to the cells and the cells incubated for a further 8 minutes at 37° C. After this further incubation the culture medium was removed from the cells and the cells lysed with 2.5 ml sample buffer [Sample buffer: 4 parts NuPage sample buffer (Novex, NP0007, Invitrogen, Paisley, Scotland) to 1 part distilled water]. The lysate was collected, 3 μl of β-mercaptoethanol added and heated to 95° C. for 10 minutes to ensure complete reduction and denaturation. The lysates can be stored at −20° C. until analysed.
Lysates were analysed using SDS polyacrylamide gel electrophoresis (PAGE) to separate the proteins within the lysates. […]
Nitrocellulose membranes were incubated for 1 hour in 5% solution of dried, skimmed milk powder in PBST [Marvel/PBST] at room temperature. […] The light from this is detected by photographic film, for example Kodak Biomax ML.
Background: Immunoblotting shows a protein as a band on a membrane.

T1 sequence (P35968 20-1356): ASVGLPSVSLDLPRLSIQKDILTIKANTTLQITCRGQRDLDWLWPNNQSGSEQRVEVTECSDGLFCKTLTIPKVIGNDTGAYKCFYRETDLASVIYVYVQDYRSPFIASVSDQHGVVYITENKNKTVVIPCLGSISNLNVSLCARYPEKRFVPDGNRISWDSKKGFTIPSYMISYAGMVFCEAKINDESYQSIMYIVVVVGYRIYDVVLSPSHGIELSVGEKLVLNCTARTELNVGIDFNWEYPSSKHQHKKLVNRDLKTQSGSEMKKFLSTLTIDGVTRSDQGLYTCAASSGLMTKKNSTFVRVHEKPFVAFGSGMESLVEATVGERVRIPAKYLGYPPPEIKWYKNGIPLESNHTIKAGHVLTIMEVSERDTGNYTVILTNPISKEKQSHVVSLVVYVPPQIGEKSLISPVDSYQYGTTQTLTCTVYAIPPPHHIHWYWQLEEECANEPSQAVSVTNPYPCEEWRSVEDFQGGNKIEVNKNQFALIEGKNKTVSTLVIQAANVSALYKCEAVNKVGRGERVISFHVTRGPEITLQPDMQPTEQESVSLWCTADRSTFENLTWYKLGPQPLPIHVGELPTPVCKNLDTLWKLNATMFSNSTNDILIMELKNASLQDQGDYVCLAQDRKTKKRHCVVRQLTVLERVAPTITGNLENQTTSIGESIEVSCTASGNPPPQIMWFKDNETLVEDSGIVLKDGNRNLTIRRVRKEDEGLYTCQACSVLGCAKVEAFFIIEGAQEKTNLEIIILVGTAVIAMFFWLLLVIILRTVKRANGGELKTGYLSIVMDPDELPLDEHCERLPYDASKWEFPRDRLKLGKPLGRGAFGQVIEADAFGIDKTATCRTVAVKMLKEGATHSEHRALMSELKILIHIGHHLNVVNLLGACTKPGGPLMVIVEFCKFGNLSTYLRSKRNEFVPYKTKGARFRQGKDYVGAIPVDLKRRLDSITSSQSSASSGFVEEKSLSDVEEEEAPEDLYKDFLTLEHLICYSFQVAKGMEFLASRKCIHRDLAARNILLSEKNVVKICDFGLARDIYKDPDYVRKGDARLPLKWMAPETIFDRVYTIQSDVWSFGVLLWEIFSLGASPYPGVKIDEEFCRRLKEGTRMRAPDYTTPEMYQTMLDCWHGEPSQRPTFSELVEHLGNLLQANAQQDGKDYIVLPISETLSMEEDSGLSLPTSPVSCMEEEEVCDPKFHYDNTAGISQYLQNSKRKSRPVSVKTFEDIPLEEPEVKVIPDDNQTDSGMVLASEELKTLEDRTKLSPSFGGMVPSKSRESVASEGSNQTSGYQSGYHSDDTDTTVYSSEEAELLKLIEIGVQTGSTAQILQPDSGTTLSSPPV

Regarding `COc1cc2c(Oc3ccc4[nH]c(C)cc4c3F)ncnc2cc1OCCCN1CCCCC1` [4[(4-fluoro-2-methyl-1H-indol-5-yl)oxy]-6-methoxy-7-(3-piperidin-1-ylpropoxy)quinazoline], the “phosphorylation of the Y1214 epitope” value is listed as “dose dependent decrease in phosporylation”.
